Literature values, collected in patent publication US4361703A, “Para-amino(or nitro)phenyl N-acetylaminothioalkanoates” (priority 1977, dated 1982).

Assays:
mice = settings: mouse, in vivo; cited from earlier work
death and liver injury = settings: cited from earlier work
[1] = system: lethal and hepatotoxic effects of paracetamol overdosage; settings: cited from earlier work

SMILES	48 hour survival (mice)	effect of methionine added to oral paracetamol dose (death and liver injury)	effect of methionine combined with paracetamol [1]
CC(=O)N[C@@H](CS)C(=O)O [N-acetylcysteine]	significantly improved 48 hour survival in mice		
CSCC[C@H](N)C(=O)O [methionine]		protects against death and liver injury	greatly reducing the lethal and hepatotoxic effects of paracetamol overdosage
